Experimental data as given in US20230312752A1 (Brown University, priority 2021, published 2023).
Structures can show the parent of a compound that is named as a salt.

Key:
[1] = system: CLK; design: key: + is used to indicate the potency of the inhibitor; ++++ > +++ > ++ > +; + is used to indicate the potency of the inhibitor; ++++ > +++ > ++ > +; + is used to indicate the potency of the inhibitor; ++++ > +++ > ++ > +; + is used to indicate the potency of the inhibitor; ++++ > +++ > ++ > +; ◯ refers to compounds with inhibitory effects on the related isoform, but without specific value; conditions: cited from earlier work
[2] = target: CDK1 (Homo sapiens, UniProt P06493); conditions: cited from earlier work
Chain of CDK1 (P06493 whole entry, species assumed): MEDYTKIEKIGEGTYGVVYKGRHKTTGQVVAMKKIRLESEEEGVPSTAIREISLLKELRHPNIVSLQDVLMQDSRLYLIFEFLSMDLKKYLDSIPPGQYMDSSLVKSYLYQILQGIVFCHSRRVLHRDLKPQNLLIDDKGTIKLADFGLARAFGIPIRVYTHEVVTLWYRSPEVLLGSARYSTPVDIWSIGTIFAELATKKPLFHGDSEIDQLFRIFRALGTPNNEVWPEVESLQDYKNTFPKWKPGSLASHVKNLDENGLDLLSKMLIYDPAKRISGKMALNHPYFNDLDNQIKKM
Chain of CDK1 (P14635 whole entry partner, species assumed): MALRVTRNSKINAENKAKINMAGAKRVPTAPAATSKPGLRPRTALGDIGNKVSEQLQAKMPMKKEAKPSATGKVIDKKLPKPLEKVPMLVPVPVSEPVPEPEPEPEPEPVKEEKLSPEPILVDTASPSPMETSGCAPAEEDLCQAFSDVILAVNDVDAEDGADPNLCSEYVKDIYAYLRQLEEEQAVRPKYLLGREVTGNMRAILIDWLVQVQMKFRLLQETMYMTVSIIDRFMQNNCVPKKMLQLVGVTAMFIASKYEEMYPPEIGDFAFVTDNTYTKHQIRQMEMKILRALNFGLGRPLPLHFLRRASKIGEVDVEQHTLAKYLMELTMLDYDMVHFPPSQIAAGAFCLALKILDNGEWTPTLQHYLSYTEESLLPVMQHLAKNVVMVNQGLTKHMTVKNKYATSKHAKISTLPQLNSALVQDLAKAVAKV

[3] = target: CDK4 (Homo sapiens, UniProt P11802); conditions: cited from earlier work
Chain of CDK4 (P11802 whole entry, species assumed): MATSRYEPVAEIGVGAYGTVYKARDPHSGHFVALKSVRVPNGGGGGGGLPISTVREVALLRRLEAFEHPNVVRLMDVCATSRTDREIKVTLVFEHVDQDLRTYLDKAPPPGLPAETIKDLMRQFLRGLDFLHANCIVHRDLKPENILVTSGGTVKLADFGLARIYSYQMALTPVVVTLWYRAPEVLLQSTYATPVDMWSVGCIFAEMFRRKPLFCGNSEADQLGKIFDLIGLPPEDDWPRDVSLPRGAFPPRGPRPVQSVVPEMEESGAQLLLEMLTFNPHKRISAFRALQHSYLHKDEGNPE
Chain of CDK4 (P24385 whole entry partner, species assumed): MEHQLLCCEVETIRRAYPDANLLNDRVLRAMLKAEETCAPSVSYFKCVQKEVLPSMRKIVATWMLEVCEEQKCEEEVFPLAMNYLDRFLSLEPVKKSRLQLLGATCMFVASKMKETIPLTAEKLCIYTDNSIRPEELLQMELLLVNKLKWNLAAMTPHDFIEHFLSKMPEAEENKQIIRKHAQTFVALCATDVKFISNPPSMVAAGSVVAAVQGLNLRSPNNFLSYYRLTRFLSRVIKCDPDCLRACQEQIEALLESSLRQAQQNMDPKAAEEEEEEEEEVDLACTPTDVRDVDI

[4] = target: CDK5 (Homo sapiens, UniProt Q00535); conditions: cited from earlier work
Chain of CDK5 (Q15078 99-307): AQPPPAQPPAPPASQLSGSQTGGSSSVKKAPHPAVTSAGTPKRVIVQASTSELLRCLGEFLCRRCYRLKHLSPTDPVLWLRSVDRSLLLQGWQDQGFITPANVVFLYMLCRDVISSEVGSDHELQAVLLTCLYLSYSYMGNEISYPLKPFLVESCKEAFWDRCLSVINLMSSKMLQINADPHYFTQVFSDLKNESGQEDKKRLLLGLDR
Chain of CDK5 (Q00535 whole entry): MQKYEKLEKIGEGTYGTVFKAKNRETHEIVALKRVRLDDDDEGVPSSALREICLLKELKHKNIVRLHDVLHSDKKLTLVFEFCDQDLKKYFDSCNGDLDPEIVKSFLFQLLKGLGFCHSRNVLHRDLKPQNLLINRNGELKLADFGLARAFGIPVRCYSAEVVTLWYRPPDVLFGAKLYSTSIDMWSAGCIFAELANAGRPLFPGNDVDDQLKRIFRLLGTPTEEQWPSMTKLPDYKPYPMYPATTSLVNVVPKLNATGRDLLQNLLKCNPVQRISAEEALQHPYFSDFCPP

[5] = target: CDK6 (Homo sapiens, UniProt Q00534); design: key to the marks not given beside the values; conditions: cited from earlier work
Chain of CDK6 (Q00534 whole entry, canonical isoform): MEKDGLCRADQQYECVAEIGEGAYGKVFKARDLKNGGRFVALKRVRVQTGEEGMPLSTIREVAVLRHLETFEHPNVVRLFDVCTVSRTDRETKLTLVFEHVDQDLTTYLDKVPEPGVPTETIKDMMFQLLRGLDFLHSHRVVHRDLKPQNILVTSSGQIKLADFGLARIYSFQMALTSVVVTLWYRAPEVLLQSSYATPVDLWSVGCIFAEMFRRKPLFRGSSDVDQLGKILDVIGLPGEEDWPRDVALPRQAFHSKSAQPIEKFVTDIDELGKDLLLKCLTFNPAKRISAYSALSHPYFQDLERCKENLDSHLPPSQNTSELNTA
Chain of CDK6 (P30281 whole entry, further chain, canonical isoform): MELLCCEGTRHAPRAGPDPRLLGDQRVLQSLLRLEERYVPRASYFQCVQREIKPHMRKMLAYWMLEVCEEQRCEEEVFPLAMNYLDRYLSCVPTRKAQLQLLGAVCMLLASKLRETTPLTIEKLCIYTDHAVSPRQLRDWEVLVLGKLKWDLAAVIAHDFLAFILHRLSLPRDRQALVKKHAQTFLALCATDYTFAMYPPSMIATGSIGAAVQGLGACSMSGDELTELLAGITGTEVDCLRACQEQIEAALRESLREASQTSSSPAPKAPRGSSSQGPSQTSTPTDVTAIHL

[6] = target: CDK9 (Homo sapiens, UniProt P50750); design: key: + is used to indicate the potency of the inhibitor; ++++ > +++ > ++ > +; + is used to indicate the potency of the inhibitor; ++++ > +++ > ++ > +; + is used to indicate the potency of the inhibitor; ++++ > +++ > ++ > +; + is used to indicate the potency of the inhibitor; ++++ > +++ > ++ > +; ◯ refers to compounds with inhibitory effects on the related isoform, but without specific value; conditions: cited from earlier work
Chain of CDK9 (P50750 whole entry, canonical isoform): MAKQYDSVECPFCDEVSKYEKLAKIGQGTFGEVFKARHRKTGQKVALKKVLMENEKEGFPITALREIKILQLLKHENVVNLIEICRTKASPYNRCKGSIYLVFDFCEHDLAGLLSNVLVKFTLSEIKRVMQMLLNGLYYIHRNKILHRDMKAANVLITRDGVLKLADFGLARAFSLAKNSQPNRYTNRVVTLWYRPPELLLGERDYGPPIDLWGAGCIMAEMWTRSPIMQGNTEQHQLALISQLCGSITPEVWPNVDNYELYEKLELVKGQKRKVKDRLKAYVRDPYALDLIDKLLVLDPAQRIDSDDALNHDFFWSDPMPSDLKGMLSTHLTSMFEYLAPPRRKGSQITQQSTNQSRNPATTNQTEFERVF
Chain of CDK9 (O60563 whole entry, further chain, canonical isoform): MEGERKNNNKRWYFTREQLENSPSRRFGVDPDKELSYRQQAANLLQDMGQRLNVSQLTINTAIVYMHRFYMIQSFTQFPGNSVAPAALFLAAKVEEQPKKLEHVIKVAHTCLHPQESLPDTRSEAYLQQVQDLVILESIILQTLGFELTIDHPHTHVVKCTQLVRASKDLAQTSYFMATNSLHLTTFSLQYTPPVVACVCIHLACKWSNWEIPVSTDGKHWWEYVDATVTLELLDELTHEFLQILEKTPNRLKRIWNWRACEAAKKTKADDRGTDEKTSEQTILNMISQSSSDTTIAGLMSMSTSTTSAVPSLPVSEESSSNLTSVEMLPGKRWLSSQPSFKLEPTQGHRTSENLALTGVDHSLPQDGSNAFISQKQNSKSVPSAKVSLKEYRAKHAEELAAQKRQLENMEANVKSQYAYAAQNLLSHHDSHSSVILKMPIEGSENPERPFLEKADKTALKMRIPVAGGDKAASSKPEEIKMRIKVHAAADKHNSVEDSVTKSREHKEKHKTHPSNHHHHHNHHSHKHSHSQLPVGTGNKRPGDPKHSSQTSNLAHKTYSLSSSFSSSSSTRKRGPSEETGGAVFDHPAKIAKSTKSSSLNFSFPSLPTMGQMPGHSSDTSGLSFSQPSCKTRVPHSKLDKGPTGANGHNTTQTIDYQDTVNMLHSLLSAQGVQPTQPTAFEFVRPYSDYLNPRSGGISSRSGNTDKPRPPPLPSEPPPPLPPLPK

[7] = target: CDK2 (Homo sapiens, UniProt P24941); conditions: cited from earlier work
[8] = target: CDK7 (Homo sapiens, UniProt P50613); conditions: cited from earlier work
Chain of CDK7 (P50613 whole entry): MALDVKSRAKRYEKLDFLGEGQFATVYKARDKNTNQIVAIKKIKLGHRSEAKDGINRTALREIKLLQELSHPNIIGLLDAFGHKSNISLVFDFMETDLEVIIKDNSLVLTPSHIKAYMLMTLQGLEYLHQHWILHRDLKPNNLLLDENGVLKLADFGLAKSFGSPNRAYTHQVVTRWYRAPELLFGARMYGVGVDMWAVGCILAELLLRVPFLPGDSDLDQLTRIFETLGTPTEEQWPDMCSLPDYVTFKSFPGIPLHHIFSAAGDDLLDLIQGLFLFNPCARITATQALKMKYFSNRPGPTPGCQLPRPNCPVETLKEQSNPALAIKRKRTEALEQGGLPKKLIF
Chain of CDK7 (P51946 whole entry, further chain): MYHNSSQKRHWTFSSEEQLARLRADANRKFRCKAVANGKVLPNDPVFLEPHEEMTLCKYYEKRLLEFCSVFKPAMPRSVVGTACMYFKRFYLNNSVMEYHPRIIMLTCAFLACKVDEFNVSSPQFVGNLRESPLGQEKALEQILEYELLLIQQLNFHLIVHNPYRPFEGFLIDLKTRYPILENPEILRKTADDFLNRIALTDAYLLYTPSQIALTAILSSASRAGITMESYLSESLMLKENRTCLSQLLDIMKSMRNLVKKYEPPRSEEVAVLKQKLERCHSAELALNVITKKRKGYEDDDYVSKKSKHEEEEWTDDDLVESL
Chain of CDK7 (P51948 whole entry, further chain): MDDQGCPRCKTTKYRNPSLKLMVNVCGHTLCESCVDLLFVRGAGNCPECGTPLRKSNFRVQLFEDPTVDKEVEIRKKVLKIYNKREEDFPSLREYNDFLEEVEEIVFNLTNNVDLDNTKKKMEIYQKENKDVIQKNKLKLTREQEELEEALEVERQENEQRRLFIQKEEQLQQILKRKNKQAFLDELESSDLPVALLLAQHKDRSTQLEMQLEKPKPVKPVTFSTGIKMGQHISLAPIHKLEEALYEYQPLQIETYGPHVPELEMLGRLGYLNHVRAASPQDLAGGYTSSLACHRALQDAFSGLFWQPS

[9] = system: ACE2; format: cell-based, human
[10] = system: TMPRSS2, CTSL and FURIN; format: cell-based, human

| Compound | Inhibitory potency CDK1 [2] | Inhibitory potency CDK4 [3] | Inhibitory potency CDK2 [7] | other results |
| --- | --- | --- | --- | --- |
| TG003 | – | – | – | Inhibitory potency CLK [1]: +++ |
| NU 6102 | +++ | + | – | – |
| O=C(NC1CCNCC1)c1[nH]ncc1NC(=O)c1c(Cl)cccc1Cl [AT7519 HCl] | ++ | ++ | – | Inhibitory potency CDK5 [4]: +++; Inhibitory potency CDK6 [5]: ++; Inhibitory potency CDK9 [6]: ++++ |
| NVP-LCQ195 | ++++ | – | +++ | Inhibitory potency CDK5 [4]: ++++; Inhibitory potency CDK9 [6]: ◯; Inhibitory potency CLK [1]: ◯ |
| Ro-3306 | +++ | – | – | – |
| CC(C)(C)c1cnc(CSc2cnc(NC(=O)C3CCNCC3)s2)o1 [SNS-032] | + | – | – | Inhibitory potency CDK5 [4]: +; Inhibitory potency CDK9 [6]: ++++ |
| LDC000067 | + | + | – | Inhibitory potency CDK9 [6]: +++ |
| CNC(=O)c1nn(C)c2c1C(C)(C)Cc1cnc(Nc3ccc(N4CCN(C)CC4)cc3)nc1-2 [Milciclib] | + | ++ | +++ | Inhibitory potency CDK5 [4]: +; Inhibitory potency CDK7 [8]: ++ |
| Cn1cc(-c2cnn3c(N)c(Br)c([C@@H]4CCCNC4)nc23)cn1 [MK-8776] | – | – | ++ | – |
| Cc1ncc(-c2ccnc(Nc3ccc(S(C)(=O)=O)cc3)n2)n1C(C)C [AZD5438] | +++ | – | – | Inhibitory potency CDK9 [6]: +++ |
| NU2058 | + | – | – | – |
| CCCCOc1c(C(=O)c2c(F)cc(C)cc2F)c[nH]c2nncc1-2 [BMS-265246] | ++++ | ++ | ++++ | – |
| COc1ccc(CNc2nc(N(CCO)CCO)nc3c2ncn3C(C)C)cc1 [CVT 313] | + | + | + | – |
| O=C(NC1CCNCC1)c1[nH]ncc1NC(=O)c1c(Cl)cccc1Cl [AT7519] | – | – | – | Inhibitory potency CDK7 [8]: + |
| Palbociclib Isethionate | – | – | – | Inhibitory potency CDK6 [5]: +++ |
| CGP60474 | +++ | – | +++ | – |
| CC(C)CC(=O)Nc1[nH]nc2c1CN(C(=O)C1CCN(C)CC1)C2(C)C [PHA-793887] | ++ | ++ | ++++ | Inhibitory potency CDK5 [4]: ++++; Inhibitory potency CDK7 [8]: ++++; Inhibitory potency CDK9 [6]: ++ |
| Purvalanol B | – | – | – | Inhibitory potency CDK5 [4]: ++++ |
| CN1CC[C@H](c2c(O)cc(O)c3c(=O)cc(-c4ccccc4Cl)oc23)[C@H](O)C1 [Flavopiridol] | +++ | +++ | +++ | Inhibitory potency CDK7 [8]: +; ability of CHI3L1 to stimulate ACE2 mRNA accumulation [9]: potently inhibited; levels of basal ACE2 expression [9]: diminished; Inhibitory potency CDK6 [5]: ++; basal and CHI3L1-stimulated expression of TMPRSS2, CTSL and FURIN [10]: potently decreased |
| C[C@H]1CC[C@H](n2c3cnccc3c3cnc(Nc4ccc5c(n4)CCN(C(=O)CO)C5)nc32)CC1 [AMG-925] | + | ++++ | – | – |
| Kenpaulione | + | – | + | Inhibitory potency CDK5 [4]: + |
| NU6027 | + | – | – | – |
| PHA-767491 | ++ | – | ++ | Inhibitory potency CDK5 [4]: +; Inhibitory potency CDK9 [6]: +++ |
| COc1c(O)cc(O)c2c(=O)cc(-c3ccccc3)oc12 [Wogonin] | – | – | – | Inhibitory potency CDK9 [6]: ◯ |
| Purvalanol A | – | + | – | – |
| ML167 | – | – | – | Inhibitory potency CLK [1]: ++ |
| Nc1nc(Nc2ccc(S(N)(=O)=O)cc2)nn1C(=O)c1c(F)cccc1F [JNJ-7706621] | ++++ | + | ++++ | Inhibitory potency CDK6 [5]: ++ |
